# Tested on: rabbits
# Experiment: Tissue proton T1 and T2 relaxation times 15 min after intravenous administration (dose-response)
# Type: in vivo
# Conditions: for T2 relaxation time / T1 relaxation time: 10 mHz RADX; for Approximate ED50, intravenous dose to reduce tissue T1 by 50% / Approximate ED50, intravenous dose to reduce tissue T2 by 50%: 15 min; for effect on hepatic and biliary T1 relaxation times: intravenous administration, Trihydrate
# Method: All experiments employing the complex dihydrogen bis(N-[N′-(2,6-dimethylphenyl)carbamoylmethyl]iminodiaceto)manganese (II) trihydrate were conducted following intravenous administration to rabbits. A 10 mM solution of the complex was used in these studies. Rabbits were anesthetized with ketamine/xylazine prior to treatment. The results given were obtained with a 10 mHz RADX proton spin analyzer.
# Dose-response experiments were conducted on rabbits following intravenous injection of 0.01-0.10 mmol of the complex/kg. […]
# [1] = Lung, 15 min after 0.03 mmol/kg i.v., rabbits
# [2] = Lung, 15 min after 0.08 mmol/kg i.v., rabbits
# [3] = Lung, 15 min after 0.10 mmol/kg i.v., 1 rabbit
# [4] = Pancreas, 15 min after 0.01 mmol/kg i.v., rabbits
# [5] = Pancreas, 15 min after 0.03 mmol/kg i.v., rabbits
# [6] = Pancreas, 15 min after 0.08 mmol/kg i.v., rabbits
# [7] = Pancreas, 15 min after 0.10 mmol/kg i.v., 1 rabbit
# [8] = Renal Cortex, 15 min after 0.01 mmol/kg i.v., rabbits
# [9] = Renal Cortex, 15 min after 0.03 mmol/kg i.v., rabbits
# [10] = Renal Cortex, 15 min after 0.08 mmol/kg i.v., rabbits
# [11] = Renal Cortex, 15 min after 0.10 mmol/kg i.v., 1 rabbit
# [12] = Renal Medulla, 15 min after 0.01 mmol/kg i.v., rabbits
# [13] = Renal Medulla, 15 min after 0.03 mmol/kg i.v., rabbits
# [14] = Renal Medulla, 15 min after 0.08 mmol/kg i.v., rabbits
# [15] = Renal Medulla, 15 min after 0.10 mmol/kg i.v., 1 rabbit
# [16] = Skeletal Muscle, 15 min after 0.01 mmol/kg i.v., rabbits
# [17] = Skeletal Muscle, 15 min after 0.03 mmol/kg i.v., rabbits
# [18] = Skeletal Muscle, 15 min after 0.08 mmol/kg i.v., rabbits
# [19] = Skeletal Muscle, 15 min after 0.10 mmol/kg i.v., 1 rabbit
# [20] = Small Intestine, 15 min after 0.01 mmol/kg i.v., rabbits
# [21] = Small Intestine, 15 min after 0.03 mmol/kg i.v., rabbits
# [22] = Small Intestine, 15 min after 0.08 mmol/kg i.v., rabbits
# [23] = Small Intestine, 15 min after 0.10 mmol/kg i.v., 1 rabbit
# [24] = Spleen, 15 min after 0.01 mmol/kg i.v., rabbits
# [25] = Spleen, 15 min after 0.03 mmol/kg i.v., rabbits
# [26] = Spleen, 15 min after 0.08 mmol/kg i.v., rabbits
# [27] = Spleen, 15 min after 0.10 mmol/kg i.v., 1 rabbit
# [28] = Stomach, 15 min after 0.01 mmol/kg i.v., rabbits
# [29] = Stomach, 15 min after 0.03 mmol/kg i.v., rabbits
# [30] = Stomach, 15 min after 0.08 mmol/kg i.v., rabbits
# [31] = Stomach, 15 min after 0.10 mmol/kg i.v., 1 rabbit
compound,measurement,setting,value
Cc1cccc(C)c1NC(=O)CN(CC(=O)[O-])CC(=O)O.Cc1cccc(C)c1NC(=O)CN(CC(=O)[O-])CC(=O)O.O.O.O.[Mn+2] [Example 2],T2 relaxation time,"Lung, 15 min after 0.01 mmol/kg i.v., rabbits",91 ms
same,T1 relaxation time,[1],352 ms
same,T2 relaxation time,[1],100 ms
same,T1 relaxation time,[2],222 ms
same,T2 relaxation time,[2],67 ms
same,T1 relaxation time,[3],144 ms
same,T2 relaxation time,[3],62 ms
same,"Approximate ED50, intravenous dose to reduce tissue T1 by 50%","Lung, rabbits",0.075 mmol/kg
same,"Approximate ED50, intravenous dose to reduce tissue T2 by 50%","Lung, rabbits",0.15 mmol/kg
same,T1 relaxation time,[4],225 ms
same,T2 relaxation time,[4],66 ms
same,T1 relaxation time,[5],104 ms
same,T2 relaxation time,[5],118 ms
same,T1 relaxation time,[6],101 ms
same,T2 relaxation time,[6],70 ms
same,T1 relaxation time,[7],149 ms
same,T2 relaxation time,[7],69 ms
same,"Approximate ED50, intravenous dose to reduce tissue T1 by 50%","Pancreas, rabbits",0.064 mmol/kg
same,T1 relaxation time,[8],236 ms
same,T2 relaxation time,[8],77 ms
same,T1 relaxation time,[9],164 ms
same,T2 relaxation time,[9],63 ms
same,T1 relaxation time,[10],77 ms
same,T2 relaxation time,[10],42 ms
same,T1 relaxation time,[11],71 ms
same,T2 relaxation time,[11],37 ms
same,T1 relaxation time,[12],435 ms
same,T2 relaxation time,[12],122 ms
same,T1 relaxation time,[13],218 ms
same,T2 relaxation time,[13],95 ms
same,T1 relaxation time,[14],124 ms
same,T2 relaxation time,[14],74 ms
same,T1 relaxation time,[15],35 ms
same,T2 relaxation time,[15],21 ms
same,"Approximate ED50, intravenous dose to reduce tissue T1 by 50%","Renal cortex, rabbits",0.041 mmol/kg
same,"Approximate ED50, intravenous dose to reduce tissue T2 by 50%","Renal cortex, rabbits",0.14 mmol/kg
same,"Approximate ED50, intravenous dose to reduce tissue T1 by 50%","Renal medulla, rabbits",0.030 mmol/kg
same,"Approximate ED50, intravenous dose to reduce tissue T2 by 50%","Renal medulla, rabbits",0.90 mmol/kg
same,T1 relaxation time,[16],364 ms
same,T2 relaxation time,[16],35 ms
same,T1 relaxation time,[17],304 ms
same,T2 relaxation time,[17],38 ms
same,T1 relaxation time,[18],255 ms
same,T2 relaxation time,[18],39 ms
same,T1 relaxation time,[19],205 ms
same,T2 relaxation time,[19],38 ms
same,"Approximate ED50, intravenous dose to reduce tissue T1 by 50%","Skeletal muscle, rabbits",0.35 mmol/kg
same,T1 relaxation time,[20],219 ms
same,T2 relaxation time,[20],73 ms
same,T1 relaxation time,[21],150 ms
same,T2 relaxation time,[21],60 ms
same,T1 relaxation time,[22],130 ms
same,T2 relaxation time,[22],50 ms
same,T1 relaxation time,[23],141 ms
same,T2 relaxation time,[23],45 ms
same,"Approximate ED50, intravenous dose to reduce tissue T1 by 50%","Small Intestine, rabbits",0.051 mmol/kg
same,"Approximate ED50, intravenous dose to reduce tissue T2 by 50%","Small Intestine, rabbits",0.27 mmol/kg
same,T1 relaxation time,[24],346 ms
same,T2 relaxation time,[24],73 ms
same,T1 relaxation time,[25],260 ms
same,T2 relaxation time,[25],70 ms
same,T1 relaxation time,[26],195 ms
same,T2 relaxation time,[26],65 ms
same,T1 relaxation time,[27],202 ms
same,T2 relaxation time,[27],71 ms
same,"Approximate ED50, intravenous dose to reduce tissue T1 by 50%","Spleen, rabbits",0.085 mmol/kg
same,T1 relaxation time,[28],287 ms
same,T2 relaxation time,[28],56 ms
same,T1 relaxation time,[29],199 ms
same,T2 relaxation time,[29],53 ms
same,T1 relaxation time,[30],122 ms
same,T2 relaxation time,[30],43 ms
same,T1 relaxation time,[31],121 ms
same,T2 relaxation time,[31],47 ms
same,"Approximate ED50, intravenous dose to reduce tissue T1 by 50%","Stomach, rabbits",0.068 mmol/kg
same,"Approximate ED50, intravenous dose to reduce tissue T2 by 50%","Stomach, rabbits",0.93 mmol/kg
same,effect on hepatic and biliary T1 relaxation times,"listed as dihydrogen bis(N-[N′-(2,6-dimethylphenyl)carbamoylmethyl]-iminodiaceto)manganese",dramatically reduced
same,effect on hepatic and biliary T1 relaxation times,"listed as dihydrogen bis(N-[N′-(2,6-dimethylphenyl)carbamoylmethyl]iminodiaceto)-manganese",dramatically reduces hepatic and biliary T1 relaxation times

# From US6797255B1, “Methods and compositions for enhancing magnetic resonance imaging” (Mallinckrodt Inc., priority 1985, dated 2004)
